{
  "source": "patent US9944583B2",
  "about": "“Methods for ameliorating and preventing central nervous system inflammation” (THE REGENTS OF THE UNIVERSITY OF CALIFORNIA, priority 2007, dated 2018)",
  "key": {"[1]": {"tested_on": "primary neuronal cultures", "experiment": "DHE oxidation (superoxide and/or hydrogen peroxide production) in primary neuronal cultures exposed to ketamine", "type": "cell-based, mouse"}, "NADPH oxidase (Nox)": {"tested_on": "NADPH oxidase (Nox)", "experiment": "Nox activity in synaptosomes by NADPH-dependent oxygen consumption (oximetry)", "type": "biochemical, mouse", "details": "ketamine 30 mg/kg in vivo on two consecutive days", "procedure": "Synaptosomal preparations. […] Mice were euthanized by exposure to a lethal dose of inhaled halothane, followed by cervical dislocation. Brains were rapidly removed, cortices dissected and homogenized in 10 volumes of ice-cold isolation buffer (0.32M sucrose, 1 mM EDTA, 10 mM Tris-HCl buffer, pH 7.4, 10 mM glucose). The homogenate was centrifuged at 3100 rpm for 3 min at 4° C., and the supernatant collected, and the pellet was re-homogenized in half the volume of isolation buffer and centrifuged again. Synaptosomal were then isolated as described (see reference 30, below) modified as follows, the pooled supernatants were mixed with PERCOLL™ (Sigma, St. Louis, Mo.) to a final concentration of 15%, and then layered onto a step gradient of 23% and 40% PERCOLL™, and centrifuged at 16,000 rpm for 5 minutes at 4° C. The uppermost band was extracted, rinsed in isolation buffer, centrifuged and resuspended in synaptosomal buffer (120 mM NaCl, 4.7 mM KCl, 2.2 mM CaCl2, 1.2 mM MgCl2, 25 mM HEPES, 1.2 mM MgSO4, 1.2 mM KH2PO4, 10 mM glucose).\nOxygen consumption studies (oximetry). O2 consumption studies on synaptosomes are carried out. […] Studies were carried out to optimize the concentration of synaptosomal protein required, and to confirm stability and viability of synaptosomes and their mitochondria for up to 6 h."}, "[2]": {"tested_on": "PV-interneurons in mouse prefrontal cortex", "experiment": "two-day ketamine treatment of mice: oxidized DHE, parvalbumin and GAD67 in prefrontal cortex", "type": "in vivo", "procedure": "Animals and treatments. […] Male C57BL6 mice were obtained from Jackson Labs, Bar Harbor, Me., at 8-12 weeks and housed in our facility until 15 weeks when they were used for experiments. Ketamine (30 mg/kg) was applied intraperitoneally (IP) on two consecutive days at around 4 pm. DHE was applied 30 min after the last ketamine injection as described (19, 20). Briefly, two serial i.p. injections of freshly prepared dihydroethidium (27 mg/kg) are given at 30 minute intervals. Eighteen hours later, mice are anesthetized with inhaled halothane, and perfused intracardially with cold saline followed by 4% paraformaldehyde in PBS. The Nox inhibitor, apocynin (5 mg/kg/day) was given in the drinking water for a total of seven days, with an assumed intake of […] H2O/mouse/day, and ketamine was applied on the last two days. […] All animal studies were approved by the Animal Care Program at the University of California, San Diego, and are in accordance the PHS Guide for the Care and Use of Laboratory Animals, USDA Regulations, and the AVMA Panel on Euthanasia.\nImmunohistochemistry: Brains were frontally sliced in a vibratome into 50 μm coronal sections encompassing the prefrontal cortex region (from Bregma 2.0 to 1.3). Sequential slices were processed for floating-section double immunohistochemistry for the detection of parvalbumin and GAD67. Antigen retrieval was performed by incubation of the slices in 1% sodium borohydride for 15 min as described (see reference 34, below), followed by washing in PBS and incubation in 10% normal goat serum in PBS for 16 h at 4° C. Primary antibodies (Calbindin: 1:5000: Calretinin: 1:2000; Parvalbumin: 1:3000, all rabbit polyclonals from Swant, Bellinzona, Switzerland. GAD67: 1:1000, from Chemicon-Millipore, Temecula, Calif.) were diluted in 2% normal goat serum in PBS and applied to the slices for 18 h at 4° C., after which slices were washed in PBS and incubated in a 1:1000 dilution of ALEXAFLUOR™ (Molecular Probes, Invitrogen, Carlsbad, Calif.) conjugated goat anti-rabbit (568) or goat anti-mouse (488) antibodies for 1 hr at room temperature (rt). Slices were washed in PBS and mounted sequentially in glass slides using […]™ (Vector Laboratories, Burlingame, Calif.), covered with a coverslip and allowed to dry for at least 24 h before confocal imaging.\nSix slices were analyzed per animal.\nAnalysis of superoxide and/or hydrogen peroxide production by confocal imaging of in vivo dihydroethidium (DHE) oxidation. Mice will be injected intraperitoneally (i.p.) with dihydroethidium."}, "[3]": {"tested_on": "PV-interneurons in mouse prefrontal cortex", "experiment": "two-day ketamine treatment of mice: oxidized DHE, parvalbumin and GAD67 in prefrontal cortex", "type": "in vivo", "details": "24 h following a single ketamine exposure"}, "[4]": {"tested_on": "synaptosomal mitochondria", "experiment": "respiration of synaptosomal mitochondria (oximetry)", "details": "after in vivo ketamine 30 mg/kg, two days"}, "primary cultures": {"tested_on": "primary cultures", "details": "ketamine 0.5 μM, 1 h and 3 h"}, "IL-6 mRNA": {"tested_on": "IL-6 mRNA", "experiment": "cytokine mRNA by RT-PCR in ketamine-treated primary neuronal cultures", "details": "ketamine 0.5 μM, up to 24 h"}, "Nox2, Nox4, p22phox": {"tested_on": "Nox2, Nox4, p22phox", "experiment": "Western blot of Nox proteins in brain membranes after in vivo ketamine", "details": "ketamine 30 mg/kg i.p., two consecutive days"}, "Nox2": {"tested_on": "Nox2", "experiment": "Nox expression in primary neuronal cultures (immunocytochemistry, Western blot)"}, "PV-interneurons": {"tested_on": "PV-interneurons", "experiment": "parvalbumin and GAD67 immunoreactivity in PV-interneurons in primary neuronal cultures"}, "[5]": {"details": "in vivo; cited from earlier work"}, "NFkB": {"tested_on": "NFkB", "experiment": "IL-6 induced superoxide production (DHE oxidation) in neuronal cultures with NFkB inhibitor", "type": "cell-based", "details": "assessed 4 hours later"}, "IL-6 receptors": {"molecular_target": "T1, IL-6 receptors (Homo sapiens, UniProt P08887)", "T1 construct": "host or cells: patients with rheumatoid arthritis / juvenile idiopathic arthritis", "T1 sequence (P08887 20-468)": "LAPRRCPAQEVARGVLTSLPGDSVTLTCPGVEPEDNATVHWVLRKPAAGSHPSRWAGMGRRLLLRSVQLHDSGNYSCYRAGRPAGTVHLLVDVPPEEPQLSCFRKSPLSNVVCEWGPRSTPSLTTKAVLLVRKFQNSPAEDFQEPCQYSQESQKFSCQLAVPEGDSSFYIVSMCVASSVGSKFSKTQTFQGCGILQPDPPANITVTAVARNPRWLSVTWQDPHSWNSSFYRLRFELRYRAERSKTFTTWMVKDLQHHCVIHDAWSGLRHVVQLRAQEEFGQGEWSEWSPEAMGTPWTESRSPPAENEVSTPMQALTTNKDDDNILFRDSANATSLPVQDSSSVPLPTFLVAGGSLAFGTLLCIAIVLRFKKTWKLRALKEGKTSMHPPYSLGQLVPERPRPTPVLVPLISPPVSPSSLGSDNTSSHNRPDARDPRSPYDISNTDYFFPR", "details": "Phase I and II clinical trials, cited from earlier work"}, "[6]": {"details": "2-day ketamine, saline 30.1±14.3"}, "[7]": {"details": "ketamine 30 mg/kg i.p., two consecutive days"}},
  "note": "Entries after “also recorded” stand apart in the source; their conditions may differ.",
  "data": [
    {"compound": "CNC1(c2ccccc2Cl)CCCCC1=O", "note": "(centres unmarked) [ketamine]", "values": [
      {"measurement": "oxidized DHE (neuronal superoxide and/or hydrogen peroxide production)", "setting": "[1]; ketamine 0.5 μM, 24 h", "result": "significant increase; also recorded: pronounced increase"},
      {"measurement": "Nox activity in synaptosomes", "setting": "NADPH oxidase (Nox)", "result": "pronounced increase"},
      {"measurement": "GAD67 in calbindin cells, mean intensity±SD", "setting": "[2]; [6]", "result": "44.2±14.5"},
      {"measurement": "GAD67 in calretinin cells, mean intensity+SD", "setting": "[2]; [6]", "result": "44.2±14.5"},
      {"measurement": "calretinin, mean intensity+SD", "setting": "[2]; 2-day ketamine, saline 133.6±35.6", "result": "139.4±28.7"},
      {"measurement": "calbindin, mean intensity±SD", "setting": "[2]; 2-day ketamine, saline 215.6±32.1", "result": "231.6±25.6"},
      {"measurement": "oxidized DHE in brain / PFC", "setting": "[2]; [7]", "result": "widespread increase; also recorded: pronounced increase"},
      {"measurement": "parvalbumin and GAD67 immunoreactivity in PV-interneurons of PFC", "setting": "[2]; [7]", "result": "significant reduction; also recorded: pronounced decrease"},
      {"measurement": "effects on PV-interneurons in the prefrontal region", "setting": "[3]", "result": "not present"},
      {"measurement": "metabolic activities of synaptosomal mitochondria", "setting": "[4]", "result": "not affected"},
      {"measurement": "superoxide signals (EPR, DIPPMPO)", "setting": "primary cultures", "result": "rapid increase"},
      {"measurement": "levels of other pro-inflammatory cytokines (IL-1, TNF mRNA)", "setting": "IL-6 mRNA", "result": "without affecting"},
      {"measurement": "expression of Nox2 and p22phox in membrane preparations of cortical tissue", "setting": "Nox2, Nox4, p22phox", "result": "significant increase"},
      {"measurement": "Nox4 expression", "setting": "Nox2; after ketamine treatment, cultures", "result": "did not see changes"},
      {"measurement": "Nox2 immunoreactivity, fluorescence quantification", "setting": "Nox2; ketamine 0.5 μM, 24 h, control 100+/−8%", "result": "170+/−15%"},
      {"measurement": "parvalbumin immunoreactivity", "setting": "PV-interneurons; ketamine 0.5 μM, 24 h", "result": "reduction"}
    ]},
    {"compound": "NCc1cc(=O)[nH]o1", "note": "[muscimol]", "values": [
      {"measurement": "effect on ketamine-mediated increase in oxidized DHE", "setting": "[1]; co-exposure with ketamine 0.5 μM 24 h, muscimol 10 μM, C3 20 μM, apocynin 0.5 mM", "result": "prevented; also recorded: complete block"},
      {"measurement": "effect on ketamine-mediated loss of parvalbumin and GAD67 immunoreactivity in PV-interneurons", "setting": "PV-interneurons; co-exposure with ketamine 24 h, muscimol 10 μM, C3, apocynin 0.5 mM", "result": "prevented; also recorded: preservation"}
    ]},
    {"compound": "CNTO-328: human-mouse chimeric monoclonal antibody (Mab) to IL-6 (Centocor)", "values": [
      {"measurement": "plasma half-life", "setting": "[5]", "result": "roughly 17 days"}
    ]},
    {"compound": "H2N-Ala-Ala-Val-Ala-Leu-Leu-Pro-Ala-Val-Leu-Leu-Ala-Leu-Leu-Ala-Pro-Val-Gln-Arg-Lys-Arg-Gn-Lvs-Leu-Met-Pro-OH (H-AAVALLPAVLLALLAPVQRKRQKLMP-OH) [SN50]", "values": [
      {"measurement": "effect on IL-6 induced superoxide production (DHE oxidation)", "setting": "NFkB", "result": "blocks"}
    ]},
    {"compound": "Tocilizumab: therapeutic humanized monoclonal antibody, specific antagonist for IL-6 receptors", "values": [
      {"measurement": "rheumatoid arthritis disease activity", "setting": "IL-6 receptors; 2, 4, 5, 8 or 10 mg/kg, dose-dependent", "result": "reduced rheumatoid arthritis disease activity significantly"},
      {"measurement": "safety and tolerability", "setting": "IL-6 receptors", "result": "generally safe and well tolerated"},
      {"measurement": "plasma half-life", "setting": "[5]", "result": "long plasma half-life"}
    ]}
  ]
}
